Results as given in publication PMC3928307, “Long-Term Activation upon Brief Exposure to Xanomleline Is Unique to M1 and M4 Subtypes of Muscarinic Acetylcholine Receptors” (PLoS ONE, 2014).

What was measured:
[1] = molecular target: T1, hM5 muscarinic receptor (Homo sapiens, UniProt P08912); assay: Fura-2 intracellular calcium microfluorometry, CHO cells; type: cell-based; settings: read-out: oxotremorine / pEC50 (converted)
T1 construct: gene CHRM5; full-length receptor stably expressed in CHO cells (Missouri S&T cDNA Resource Center)
T1 sequence (P08912 1-532): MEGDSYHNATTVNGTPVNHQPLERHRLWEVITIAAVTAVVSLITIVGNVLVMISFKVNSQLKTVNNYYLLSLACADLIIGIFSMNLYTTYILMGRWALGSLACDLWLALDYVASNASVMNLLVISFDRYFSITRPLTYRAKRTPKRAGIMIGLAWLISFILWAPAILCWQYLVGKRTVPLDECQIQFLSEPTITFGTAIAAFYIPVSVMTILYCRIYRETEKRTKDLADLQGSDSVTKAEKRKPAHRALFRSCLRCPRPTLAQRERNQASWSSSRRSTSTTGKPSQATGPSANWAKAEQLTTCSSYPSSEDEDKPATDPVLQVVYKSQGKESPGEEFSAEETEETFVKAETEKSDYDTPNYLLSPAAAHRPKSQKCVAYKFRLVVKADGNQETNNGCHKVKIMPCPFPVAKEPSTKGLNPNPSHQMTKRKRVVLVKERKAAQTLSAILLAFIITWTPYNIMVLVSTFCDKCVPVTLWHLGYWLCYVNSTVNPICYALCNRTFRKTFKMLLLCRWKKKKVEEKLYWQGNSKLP
Text: Fura-2 intracellular calcium microfluorometry, CHO cells on hM5 muscarinic receptor

[2] = molecular target: T2, hM3 muscarinic receptor (Homo sapiens, UniProt P20309); assay: as above; type: cell-based; settings: read-out: oxotremorine / pEC50 (converted)
T2 construct: gene CHRM3; full-length receptor stably expressed in CHO cells (Missouri S&T cDNA Resource Center)
Text: Fura-2 intracellular calcium microfluorometry, CHO cells on hM3 muscarinic receptor

[3] = molecular target: T3, hM1 muscarinic receptor (Homo sapiens, UniProt P11229); assay: cell-based
T3 construct: gene CHRM1
T3 sequence (P11229 1-460): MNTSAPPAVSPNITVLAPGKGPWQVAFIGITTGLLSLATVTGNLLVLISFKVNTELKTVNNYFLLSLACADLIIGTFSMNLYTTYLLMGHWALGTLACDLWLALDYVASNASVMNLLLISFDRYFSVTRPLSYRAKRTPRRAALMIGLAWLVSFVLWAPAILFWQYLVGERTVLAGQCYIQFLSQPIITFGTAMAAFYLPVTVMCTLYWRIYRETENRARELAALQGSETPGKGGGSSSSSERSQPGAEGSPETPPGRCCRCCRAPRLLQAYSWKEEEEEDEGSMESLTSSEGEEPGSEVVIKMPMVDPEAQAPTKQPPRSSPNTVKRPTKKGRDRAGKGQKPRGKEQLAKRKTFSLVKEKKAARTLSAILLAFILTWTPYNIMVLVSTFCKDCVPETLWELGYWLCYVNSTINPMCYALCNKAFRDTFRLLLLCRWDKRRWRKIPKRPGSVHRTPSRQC
Text: Fura-2 intracellular calcium microfluorometry, CHO cells on hM1 muscarinic receptor

[4] = molecular target: T4, hM2 muscarinic receptor (Homo sapiens, UniProt P08172); assay: Fura-2 intracellular calcium microfluorometry, CHO cells; type: cell-based; settings: read-out: oxotremorine / pEC50 (converted)
T4 construct: gene CHRM2; full-length receptor stably expressed in CHO cells; human G16 transiently co-transfected for calcium assay
T4 sequence (P08172 1-466): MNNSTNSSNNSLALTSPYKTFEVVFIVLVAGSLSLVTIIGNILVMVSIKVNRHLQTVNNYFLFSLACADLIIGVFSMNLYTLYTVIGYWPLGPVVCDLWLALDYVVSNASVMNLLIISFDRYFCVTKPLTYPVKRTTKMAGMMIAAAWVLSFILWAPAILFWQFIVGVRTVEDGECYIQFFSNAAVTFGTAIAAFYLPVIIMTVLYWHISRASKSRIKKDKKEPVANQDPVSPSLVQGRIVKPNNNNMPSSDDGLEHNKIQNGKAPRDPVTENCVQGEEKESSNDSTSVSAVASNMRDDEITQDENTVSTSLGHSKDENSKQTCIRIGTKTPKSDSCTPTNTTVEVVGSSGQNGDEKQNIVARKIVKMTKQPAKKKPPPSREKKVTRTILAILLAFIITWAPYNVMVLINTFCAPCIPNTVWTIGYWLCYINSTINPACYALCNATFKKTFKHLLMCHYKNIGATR
Text: Fura-2 intracellular calcium microfluorometry, CHO cells on hM2 muscarinic receptor

[5] = molecular target: T5, hM4 muscarinic receptor (Homo sapiens, UniProt P08173); assay: cell-based
T5 construct: gene CHRM4
T5 sequence (P08173 1-479): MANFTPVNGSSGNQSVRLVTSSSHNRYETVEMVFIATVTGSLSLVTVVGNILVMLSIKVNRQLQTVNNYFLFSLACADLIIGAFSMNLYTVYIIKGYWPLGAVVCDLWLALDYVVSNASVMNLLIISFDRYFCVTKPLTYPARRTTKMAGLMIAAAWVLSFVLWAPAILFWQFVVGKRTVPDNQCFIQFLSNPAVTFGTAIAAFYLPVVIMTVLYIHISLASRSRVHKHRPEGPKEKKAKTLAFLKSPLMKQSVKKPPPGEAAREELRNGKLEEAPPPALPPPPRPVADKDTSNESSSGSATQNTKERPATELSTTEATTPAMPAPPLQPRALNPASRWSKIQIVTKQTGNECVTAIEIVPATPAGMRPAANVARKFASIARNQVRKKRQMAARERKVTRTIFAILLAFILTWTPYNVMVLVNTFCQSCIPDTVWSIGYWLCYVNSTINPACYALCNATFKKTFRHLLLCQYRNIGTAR

T2 sequence (P20309 whole entry): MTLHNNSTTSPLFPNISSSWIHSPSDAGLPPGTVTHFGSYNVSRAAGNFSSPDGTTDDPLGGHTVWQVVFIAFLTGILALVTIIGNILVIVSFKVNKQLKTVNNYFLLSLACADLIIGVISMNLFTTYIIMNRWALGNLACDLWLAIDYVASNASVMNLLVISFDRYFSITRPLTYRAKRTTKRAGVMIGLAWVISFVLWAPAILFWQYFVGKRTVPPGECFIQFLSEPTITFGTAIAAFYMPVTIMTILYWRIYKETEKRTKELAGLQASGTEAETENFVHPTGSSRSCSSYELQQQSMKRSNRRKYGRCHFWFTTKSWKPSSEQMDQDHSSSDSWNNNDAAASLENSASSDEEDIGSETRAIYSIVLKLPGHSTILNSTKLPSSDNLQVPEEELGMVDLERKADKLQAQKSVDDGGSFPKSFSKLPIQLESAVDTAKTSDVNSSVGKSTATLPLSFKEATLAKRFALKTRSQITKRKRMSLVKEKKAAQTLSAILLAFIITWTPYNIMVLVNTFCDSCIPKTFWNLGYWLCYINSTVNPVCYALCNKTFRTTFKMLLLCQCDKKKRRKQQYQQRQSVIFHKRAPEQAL

Work on `O=C1CCCN1CC#CCN1CCCC1` [oxotremorine] yielded an EC50 [1] of 0.0513 µM, an EC50 [2] of 0.0468 µM and an EC50 [3] of 0.0468 µM. It also gave an EC50 [4] of 0.0646 µM and an EC50 [5] of 0.0676 µM.
